Here are results for 5 compounds from patent US20170314056A1, “METHOD OF USING NEAR INFRARED FLUORESCENT DYES FOR IMAGING AND TARGETING CANCERS” (priority 2010, published 2017).

“Also recorded” adds a separate entry of the source.

In series [1] the test system is organic anion transporting peptides (OATPs). The series is described as follows: Blockade of dye uptake into ARCaPM cells by BSP. Format: cell-based, human. The following applies: 250 μM BSP. The procedure:
ARCaPM Cells were plated on live-cell imaging chambers from World Precision Instrument (Sarasota, Fla.) overnight. Cells were treated with 20 μM IR-780 and 250 μM BSP at the same time and cells were imaged using a Perkin-Elmer Ultraview ERS spinning disc confocal microscope.
To determine if the cyanine dye uptake and accumulation in cancer cells was dependent upon OATPs, cells were preincubated with 250 μM bromosulfophthalein (BSP), a competitive inhibitor of organic anion transporting peptides (OATPs) (25), for 5 minutes prior to incubating the cells with cyanine dyes. The uptake and accumulation of cyanine dyes in the presence and absence of BSP were conducted in the stage warmer incubator for a period of 35 minutes. The levels of cyanine dye taken up and accumulated in normal prostate (P69) and prostate cancer (ARCaPM) cells were determined and compared on a real-time basis.

The conditions of series [2]: mouse, in vivo. The procedure:
In control mice, the same volume of PBS was injected. The body weight and lethality of these mice were closely followed for 28 days.

Series [3] deals with MIA PaCa-2 human pancreatic cancer cells. Description: Structural requirement screen for cancer cell uptake and retention. Format: cell-based. The following applies: cultured MIA PaCa-2 cells. The procedure:
FIG. 45 depicts structural requirement of heptamethine cyanine dyes for cancer cell uptake and retention in accordance with various embodiments of the present invention. A series of heptamethine cyanine dyes and their derivatives were screened in cultured MIA PaCa-2 human pancreatic cancer cells with parental MHI-148 served as a positive control.
Cells (1×10^4/well) were seeded on vitronectin-coated four-well chamber slides (Nalgen Nunc, Naperville, Ill.) and incubated with T-medium containing 5% FBS for 24 h. After the cells had attached to the chamber slides, the cells were washed with PBS (Phosphate Buffered Saline) and exposed to the cyanine dye at a concentration of 20 μM in T-medium. The slides were incubated at 37° C. for 30 min, washed twice with PBS to remove excess dyes, and cells were fixed with 10% formaldehyde at 4° C. The slides were then washed twice with PBS and covered with glass coverslips with an aqueous mounting medium (Sigma-Aldrich, St. Louis, Mo.). Images were recorded by confocal laser microscopy (Zeiss LSM 510 META, Germany) using a 633 nm excitation laser and 670-810 nm long pass filter, or a fluorescence microscope (Olympus 1×71; Olympus, Melville, N.Y.) equipped with a 75 W Xenon lamp and an Indo-Cyanine Green filter cube (excitation 750-800 nm; emission 820-860 nm) (Chroma, Rockingham, Vt.).

The test system of series [4] is human renal cancer SN12C at subcutaneous sites. The series is described as follows: Structural requirement of uptake and retention by tumor tissues in mice. Type of series: in vivo. The following applies: i.p. 10 nmol per mouse, 24 hrs. The procedure: FIG. 46 depicts structural requirement of the uptake and retention of heptamethine cyanine dyes by tumor tissues in mice in accordance with various embodiments of the present invention. Mice bearing human renal cancer SN12C at subcutaneous sites were injected i.p. with MHI-148, IR-1, IR-2, IR-3 and IR-4 heptamethine cyanine dyes at a dose of 10 nmol per mouse. Whole-body optical imaging was taken at 24 hrs using a Kodak Imaging System.
During imaging, mice were maintained in an anesthetized state.

In series [5] the test system is cultured human cancer cell lines in vitro and their xenograft tumors in vivo. Description: Classification of heptamethine cyanine dyes as active or inactive. The note with it: specific uptake in vitro and in xenograft tumors in vivo, NIR fluorescence imaging. Details: key: Active: Activity of the dyes denotes specific uptake by cultured human cancer cell lines in vitro and their xenograft tumors in vivo, setermined by NIR fluorescence imaging.; Inactive: These heptamethine cyanine dyes were not accumulated in tumor cells in vitro and xenograft tumors in vivo. Format: cell-based. An excerpt: A comparative analysis also uncovered several common structural features of heptamethine cyanine dyes accounting for their preferential uptake and retention by cancer cells. […] A rigid cyclohexenyl ring in the heptamethine chain with a central chlorine atom maintains photostability, increases quantum yield, decreases photobleaching, and reduces dye aggregation in solution (1).

For the compound `O=C1OC(c2ccc(O)c(S(=O)(=O)O)c2)(c2ccc(O)c(S(=O)(=O)O)c2)c2c(Br)c(Br)c(Br)c(Br)c21` [BSP, bromosulfophthalein], the “effect on uptake of IR-780 by ARCaPM cells” value in series [1] (20 μM IR-780) was “complete blockade; also recorded: significantly inhibited”. Also, the “effect on uptake of IR-783 by ARCaPM cells” value in series [1] (20 μM IR-783) was “abolished; also recorded: abrogated”.

On to `CC1(C)C(/C=C/C=C/C=C/C=C2\N(CCCCS(=O)(=O)O)c3ccc4ccccc4c3C2(C)C)=[N+](CCCCS(=O)(=O)[O-])c2ccc3ccccc3c21` [ICG, indocyanine green, reference compound], for which the “toxicity as evidenced by gains of body weight” value in series [2] is listed as “no toxicity was detected”.

Regarding `CC1(C)/C(=C\C=C2/CCCC(/C=C/C3N(CCCO)c4ccccc4C3(C)C)=C2Cl)N(CCCO)c2ccccc21` (stereo not drawn) [IR-1], the “uptake and retention by cancer cell line compared with MHI-148” value in series [3] is “devoid of any uptake and retention”. Moreover, the “tumor fluorescence signal in whole-body optical imaging” value (shortened to “tumor fluorescence signal”) in series [4] was “background fluorescence signals”. In series [5], the “Active and inactive heptamethine cyanine dyes” value is on record as “Inactive dyes^b”.

With `CC(=O)OCCCN1/C(=C/C=C2\CCCC(/C=C/C3N(CCCOC(C)=O)c4ccccc4C3(C)C)=C2Cl)C(C)(C)c2ccccc21` (stereo not drawn) [IR-2], in series [3], the “uptake and retention by cancer cell line compared with MHI-148” value was “devoid of any uptake and retention”. Moreover, the “tumor fluorescence signal” value in series [4] is given as “background fluorescence signals”. Besides, in series [5], the “Active and inactive heptamethine cyanine dyes” value is reported as “Inactive dyes^b”.

Consider `CC1(C)/C(=C\C=C2/CCCC(/C=C/C3N(CCCN)c4ccccc4C3(C)C)=C2Cl)N(CCCN)c2ccccc21` (stereo not drawn) [IR-3], for which the “uptake and retention by cancer cell line compared with MHI-148” value in series [3] is “devoid of any uptake and retention”. Also, the “tumor fluorescence signal” value in series [4] is “background fluorescence signals”. For the same compound, the “Active and inactive heptamethine cyanine dyes” value in series [5] is “Inactive dyes^b”.
